Here are results for seven compounds from paper PMC2663005 (Bioorganic & medicinal chemistry, 2009).

Experiment [1] deals with T1, S. aureus SrtAΔN24 (Staphylococcus aureus, UniProt Q2FV99). The experiment in a line: biochemical. As to conditions: for Hill Coefficient: fit of fractional activity vs inhibitor concentration. Type of experiment: biochemical.
The target in experiment [2] is T1, S. aureus SrtAΔN24. Description: HPLC-based SrtA activity assay at fixed inhibitor concentrations. Type of experiment: biochemical. Particulars: read-out: percent inhibition (%I).
The target in a further experiment is SrtA Cys184 (Staphylococcus aureus, UniProt Q2FV99). The experiment in a line: ESI-MS and MS/MS of trypsin-digested inhibitor-treated SrtA. The class given is binding. As to conditions: SrtA incubated with compound, SDS-PAGE, trypsin digest.

Turning to `C=CS(=O)(=O)[C@H]1C[C@]2(C(=O)OC)CCC(=O)N2[C@H]1c1cccnc1` (relative stereo) [Compound 3l, Methyl (2S*,3S*,7aS*)-2-ethenesulfonyl-5-oxo-3-pyridin-3-yl-tetrahydropyrrolizine-7a-carboxylate], the “Hill Coefficient” value on S. aureus SrtAΔN24 [1] stood at 1.42 ± 0.14. In the case of `C=CS(=O)(=O)[C@H]1C[C@]2(C(=O)OC)CCC(=O)N2[C@H]1c1ccc(OC)c(OC)c1` (relative stereo) [Compound 3k, Methyl (2S*,3S*,7aS*)-3-(3,4-dimethoxyphenyl)-2-ethenesulfonyl-5-oxotetrahydropyrrolizine-7a-carboxylate], the “Hill Coefficient” value on S. aureus SrtAΔN24 [1] was 1.39 ± 0.28. On to `C=CS(=O)(=O)[C@H]1C[C@@](CCC(=O)OC)(C(=O)OC)N[C@H]1c1cccnc1` (relative stereo) [Compound 2l, Methyl (2S*,4S*,5S*)-4-ethenesulfonyl-2-(2-methoxycarbonylethyl)-5-pyridin-3-yl-pyrrolidine-2-carboxylate], for which the “Hill Coefficient” value at S. aureus SrtAΔN24 [1] is given as 1.40 ± 0.33. Regarding `C=CS(=O)(=O)[C@H]1C[C@@](CCC(=O)OC)(C(=O)OC)N[C@H]1c1ccc(OC)c(OC)c1` (relative stereo) [Compound 2k, Methyl (2S*,4S*,5S*)-5-(3,4-dimethoxyphenyl)-4-ethenesulfonyl-2-(2-methoxycarbonylethyl)pyrrolidine-2-carboxylate], the IC50 against S. aureus SrtAΔN24 [1] is greater than 5 mM. As for `Cc1cn(C[C@@H]2C[C@H](C#N)[C@H](c3ccccc3)N2C)c(=O)[nH]c1=O` (relative stereo) [Compound 9, (2R*,3S*,5S*)-1-Methyl-5-(5-methyl-2,4-dioxo-3,4-dihydro-2H-pyrimidin-1-ylmethyl)-2-phenylpyrrolidine-3-carbonitrile], the inhibition at 1000 µM on S. aureus SrtAΔN24 [2] amounted to 6%. In the case of `C=CS(=O)(=O)[C@H]1C[C@]2(C(=O)OC)CCC(=O)N2[C@H]1c1ccccc1` (relative stereo) [Compound 3j, Methyl (2S*,3S*,7aS*)-2-ethenesulfonyl-5-oxo-3-phenyltetrahydropyrrolizine-7a-carboxylate], the “Hill Coefficient” value on S. aureus SrtAΔN24 [1] is on record as 1.90 ± 0.23.

For the compound `C=CS(=O)(=O)C1CC(C(=O)OC)NC1c1cccc(F)c1` (stereo not shown) [Compound 2c], at SrtA Cys184, the “covalent modification of SrtA” value is on record as “formation of a covalent adduct with Cys184”.
